Measurements taken from PubChem BioAssay (NCI).
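How tested: cells in 96-well plates exposed to compound for 48 hours at five concentrations. GI50: concentration for 50% inhibition of growth. TGI: total growth inhibition.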

How the values were obtained:
Test in all cases: DTP human tumour cell line panel, 48 h
[1] = test system: MCF7 breast
[2] = test system: MDA-MB-435
[3] = test system: NCI-H522 lung
[4] = test system: NCI/ADR-RES ovarian
[5] = test system: 786-0 renal
[6] = test system: T-47D breast
[7] = test system: HOP-18 NSCLC
[8] = test system: KM20L2 colon
[9] = test system: M19-MEL melanoma
[10] = test system: SR leukemia
[11] = test system: XF 498 CNS
[12] = test system: RXF-631 renal

Compound | GI50 [1] [µM] | TGI [1] [µM] | GI50 [2] [µM] | TGI [2] [µM] | GI50 [3] [µM] | TGI [3] [µM] | GI50 [4] [µM] | TGI [4] [µM] | TGI [5] [µM] | TGI [6] [µM] | TGI [7] [µM] | TGI [8] [µM] | TGI [9] [µM] | TGI [10] [µM] | TGI [11] [µM] | TGI [12] [µM]
Cn1cc(-c2csc(-c3cn(C)c4ccc(Br)cc34)n2)c2cnccc21 | 1.78 | 3.43 | 1.76 | 3.22 | 1.76 | 3.44 | 2.07 | 3.91 | – | – | – | – | – | – | – | –
[O-]c1c[n+](CCCC[n+]2cc([O-])on2)no1 | – | > 100 | – | > 100 | – | > 100 | – | > 100 | > 100 | > 100 | – | – | – | – | – | –
NC(=O)c1ccc(NS(=O)(=O)c2ccc(N)cc2)nc1 | – | > 100 | – | > 100 | – | – | – | > 100 | > 100 | > 100 | – | – | – | – | – | –
CN(C)CC1CCCC(CN2CCCCC2)C1=O (stereo not drawn) | – | 2.62 | – | 31.1 | – | 0.204 | – | 14.6 | 6.07 | 4.85 | 4.71 | 41.6 | 34.7 | > 100 | – | –
CC(N)C(=O)OCN1C(=O)C2C3C=CC(C2C1=O)C1C2C(=O)N(COC(=O)C(C)N)C(=O)C2C31 (stereo not drawn) | – | – | – | – | – | – | – | – | 37.6 | – | > 100 | 72.2 | 40 | 29.3 | 47.5 | –
Nc1nc(Cl)cc(NCCCNc2cc(Cl)nc(N)n2)n1 | – | – | – | – | – | – | – | – | – | – | > 100 | > 100 | > 100 | > 100 | > 100 | > 100
C1CCC(OCc2nnn3c2CCC3)OC1 (stereo not drawn) | – | – | – | – | – | > 100 | – | – | – | – | – | > 100 | > 100 | > 100 | > 100 | –
C=C1C(=O)OC2/C=C(\C)C3OC3/C=C(/C(=O)OC)C(O)C(OC(=O)C3(C)OC3C)C12 (stereo not drawn) | – | – | – | – | – | 0.6 | – | – | 3.26 | – | – | – | – | 3.05 | – | –
Cc1ccccc1[P+](C)(c1ccccc1C)c1ccccc1C | – | > 100 | – | 21 | – | 21.6 | – | 58.8 | 93.7 | 12.9 | – | – | – | – | – | –
O=c1oc2ccccc2n1P(=O)(n1c(=O)oc2ccccc21)n1c(=O)oc2ccccc21 | – | – | – | – | – | > 100 | – | – | – | – | – | > 100 | > 100 | > 100 | > 100 | > 100
CO[C@H]1ON=C(c2c(C)cc(C)cc2C)[C@@H]1C1(c2ccccc2)ON=C(c2c(C)cc(C)cc2C)O1 (stereo partly drawn) | – | – | – | – | – | > 100 | – | – | – | – | > 100 | > 100 | > 100 | > 100 | – | –
c1ccc(CSC2(SCc3ccccc3)CCCC2)cc1 | – | > 10 | – | > 10 | – | > 10 | – | > 10 | – | > 10 | – | – | – | > 10 | – | –
CC(C)OC(=O)Nc1cccc(Cl)c1 | – | > 100 | – | > 100 | – | – | – | > 100 | > 100 | > 100 | – | – | – | > 100 | – | –
CS/C(C#N)=C(\C#N)SC | – | 12.3 | – | 40.5 | – | 3.75 | – | > 100 | > 100 | 26.2 | – | – | – | 5.43 | – | –
Cc1ccc(S(=O)(=O)N2c3ccccc3[C@H]3CCc4c([nH]c5ccccc45)[C@H]32)cc1 | – | > 100 | – | > 100 | – | – | – | > 100 | – | > 100 | – | – | – | – | – | –
CN1C(=O)CN2C(Cl)(Cl)C2(c2ccccc2F)c2cc([N+](=O)[O-])ccc21 (stereo not drawn) | – | – | – | – | – | > 100 | – | – | – | – | – | > 100 | > 100 | > 100 | – | –
